# Data from US12202826B2, “N-pyridinyl acetamide derivatives as inhibitors of the Wnt signaling pathway” (Redx Pharma PLC, priority 2014, dated 2025).
# System: L-Wnt cells (murine Wnt-3a) / Leading Light Wnt Reporter Cells (luciferase under control of Wnt pathway response elements)
# Experiment: Dual-Cell β-Catenin Reporter Assay
# Format: cell-based, Mouse
# Conditions: category of IC50; luciferase signal reduced to 50% of DMSO control
# Description: Dual-Cell β-Catenin Reporter Assay
# Mouse L cells transfected to constitutively produce biologically active murine Wnt-3a, referred to as L-Wnt cells, were purchased from the American Type Culture Collection, ATCC, Manassas, VA (ATCC). These cells were cultured in DMEM supplemented with 10% FCS (Gibco/Invitrogen, Carlsbad, CA), 1% geneticin and 1% sodium pyruvate (Sigma) at 37° C. with 5% CO2. The cells were seeded into 96 well plates and treated with serial dilutions of compound diluted to 0.1% DMSO concentration. After 24 hours, cell supernatants were transferred to a 96 well plate previously seeded with Leading Light® Wnt Reporter Cells, stably transfected with a luciferase gene under control of Wnt pathway response elements. After a further 24 hours, cells are treated with One-glo luciferase assay system (Promega, Madison, WI) and the luminescent signal read by envision. The IC50 of the compound is determined as the concentration that reduces the induced luciferase signal to 50% of the DMSO control.
# The category “+” refers to compounds with an IC50 of >100 μM. The category “++” refers to compounds with an IC50 of 5 to 100 μM. The category “+++” refers to compounds with an IC50<5 μM.
row,Compound,IC50 [nM]
1,O=C(Cn1cc(-c2ccnc(C(F)(F)F)n2)cn1)Nc1ccc(-c2cnccn2)cn1 [compound 37],< 5
2,Cc1nn(CC(=O)Nc2ccc(-c3ccnc(C#N)c3)cn2)c(C)c1-c1ccnc(C(F)(F)F)c1 [compound 71],< 5
3,O=C(Cn1cc(-c2ccnc(C(F)(F)F)c2)cn1)Nc1ccc(-c2cncnc2)cn1 [compound 34],< 5
4,Cc1nn(CC(=O)Nc2ccc(-c3cnccn3)cn2)c(C)c1C1=CCNCC1 [compound 53],> 100
5,Cc1nccc(-c2cnn(CC(=O)Nc3ccc(-c4cnccn4)cn3)c2)n1 [compound 38],5 to 100
6,Cc1nn(CC(=O)Nc2ccc(-c3cnccn3)cn2)c(C)c1C1CCOCC1 [compound 40],< 5
7,Cc1nn(CC(=O)Nc2ncc(-c3cnccn3)cc2F)c(C)c1-c1ccnc(C(F)(F)F)c1 [compound 73],5 to 100
8,Cc1nn(CC(=O)Nc2ccc(-c3cnccn3)cn2)cc1C1=CCOCC1 [compound 89],5 to 100
9,Cc1nn(CC(=O)Nc2ccc(-c3ncccn3)cn2)c(C)c1-c1ccnc(C(F)(F)F)c1 [compound 65],< 5
10,Cc1nn(CC(=O)Nc2ccc(-c3cnccn3)cn2)c(C)c1-c1ccnn1C1CCCC1 [compound 47],> 100
11,"tert-butyl 4-[1-[2-oxo-2-[(5-pyrazin-2-yl-2-pyridyl)amino]ethyl]pyrazol-4-yl]-3,6-dihydro-2H-pyridine-1-carboxylate [Example 16]",5 to 100
12,Cc1nn(CC(=O)Nc2ccc(-c3cnccn3)cn2)c(C)c1-c1ccc(N(C)C)nc1 [compound 101],5 to 100
13,Cc1cc(-c2cn(CC(=O)Nc3ccc(-c4cnccn4)cn3)nc2C)ccn1 [compound 90],< 5
14,Cc1cc(-c2csc(CC(=O)Nc3ccc(-c4cnccn4)cn3)c2)ccn1 [compound 24],< 5
15,Cc1nn(C(=O)C(C)(C)Nc2ccc(-c3cnccn3)cn2)c(C)c1C1=CCCOC1 [compound 83],5 to 100
16,Cc1nn(CC(=O)Nc2ccc(C3=CCS(=O)(=O)CC3)cn2)c(C)c1-c1ccnc(C(F)(F)F)c1 [compound 63],5 to 100
17,Cc1cc(-c2c(C)nn(CC(=O)Nc3ccc(-c4cnccn4)cn3)c2C)ccn1 [compound 44],< 5
18,Cc1c(-c2ccnc(C(F)(F)F)c2)ncn1CC(=O)Nc1ccc(-c2ccnc(C#N)c2)cn1 [compound 109],5 to 100
19,O=C(Cn1cc(-c2ccnc(C(F)(F)F)c2)c(C(F)(F)F)n1)Nc1ccc(-c2cnccn2)cn1 [compound 95],< 5
20,Cc1ncsc1-c1cnn(CC(=O)Nc2ccc(-c3cnccn3)cn2)c1 [compound 25],5 to 100
21,Cc1nn(CC(=O)Nc2ccc(-c3ncccn3)cn2)c(C)c1C1CC(C)OC(C)C1 (centres unmarked) [compound 97],5 to 100
22,CC(C)n1nccc1-c1cnn(CC(=O)Nc2ccc(-c3cnccn3)cn2)c1 [compound 43],> 100
23,Cn1nccc1-c1cn(CC(=O)Nc2ccc(-c3cnccn3)cn2)cn1 [compound 32],> 100
24,O=C(Cn1cnc(-c2ccnc(C(F)(F)F)c2)c1)Nc1ccc(-c2cnccn2)nc1 [compound 13],5 to 100

row,Compound,IC50 [nM]
1,Cc1cc(-c2cnn(CC(=O)Nc3ccc(-c4cnccn4)cn3)c2)ncn1 [compound 39],> 100
2,Cc1nn(CC(=O)Nc2ccc(C3=CCOCC3)cn2)c(C)c1-c1ccnc(C(F)(F)F)c1 [compound 49],5 to 100
3,O=C(Cn1cc(-c2ccnn2C2CCCC2)cn1)Nc1ccc(-c2cnccn2)cn1 [compound 45],> 100
4,Cc1nn(CC(=O)Nc2ccc(-c3ccncc3)cn2)c(C)c1-c1ccnc(C(F)(F)F)c1 [compound 60],5 to 100
5,Cc1cc(-c2c(C)nn(CC(=O)Nc3ccc(-c4cnccn4)cn3)c2C)cnn1 [compound 51],5 to 100
6,Cc1c(-c2ccnc(C(F)(F)F)c2)ncn1CC(=O)Nc1ccc(-c2cccnc2)cn1 [compound 108],< 5
7,Cc1nn(CC(=O)Nc2ccc(-c3cnccn3)cn2)c(C)c1-c1cnn(C(C)C)c1 [compound 62],5 to 100
8,Cn1nccc1-c1cnn(CC(=O)Nc2ccc(-c3cnccn3)cn2)c1 [compound 26],5 to 100
9,Cc1nn(CC(=O)Nc2ccc(-c3cnccn3)cn2)c(C)c1-c1cn(C)nc1C(F)(F)F [compound 70],5 to 100
10,Cc1nc(-c2ccnc(C(F)(F)F)c2)cn1CC(=O)Nc1ccc(-c2cnccn2)cn1 [compound 68],< 5
11,Cc1nn(CC(=O)Nc2ccc(C3CCOCC3)cn2)c(C)c1-c1ccnc(C(F)(F)F)c1 [compound 69],5 to 100
12,Cc1nn(CC(=O)Nc2ccc(-c3cnccn3)cn2)c(C)c1-c1cc(N(C)C)nc(C(F)(F)F)n1 [compound 78],< 5
13,CC(=O)Nc1ccc(-c2ccc(NC(=O)Cn3cc(-c4ccnc(C(F)(F)F)c4)c(C)n3)nc2)cn1 [compound 103],< 5
14,O=C(Cn1cc(-c2cn[nH]c2)cn1)Nc1ccc(-c2cnccn2)cn1 [compound 33],> 100
15,Cc1cc(-c2cnn(CC(=O)Nc3ccc(N4CCN(C(=O)OC(C)(C)C)CC4)cn3)c2)ccn1 [compound 8],5 to 100
16,Cc1nn(CC(=O)Nc2ccc(-c3cnccn3)cn2)c(C)c1C1CC(C)OC(C)C1 (centres unmarked) [compound 92],5 to 100
17,Cc1nn(CC(=O)Nc2ccc(-c3cnccn3)cn2)c(C)c1C1=CCN(C(=O)OC(C)(C)C)CC1 [compound 46],5 to 100
18,Cc1cc(-c2cn(CC(=O)Nc3ccc(-c4cncnc4)cn3)nc2C)ccn1 [compound 91],< 5
19,Cc1nn(CC(=O)Nc2ccc(-c3ccc(N(C)C)nc3)cn2)cc1-c1ccnc(C(F)(F)F)c1 [compound 99],< 5
20,Cc1c(-c2ccnc(C(F)(F)F)c2)ncn1CC(=O)Nc1ccc(-c2cncnc2)cn1 [compound 104],< 5
21,Cc1nn(CC(=O)Nc2ccc(-c3cccnc3)cn2)c(C)c1-c1ccnc(C(F)(F)F)c1 [compound 52],< 5
22,Cn1nccc1-c1csc(CC(=O)Nc2ccc(-c3cnccn3)cn2)c1 [compound 31],5 to 100
23,O=C(Cn1cnc(C2=CCNCC2)c1)Nc1ccc(-c2cnccn2)cn1 [compound 42],> 100
24,O=C(Cn1cc(-c2cc(C(F)(F)F)ncn2)cn1)Nc1ccc(-c2cnccn2)cn1 [compound 41],5 to 100

row,Compound,IC50 [nM]
1,Cc1cc(-c2cnccn2)cnc1NC(=O)Cn1nc(C)c(-c2ccnc(C(F)(F)F)c2)c1C [compound 76],> 100
2,COc1ccc(-c2c(C)nn(CC(=O)Nc3ccc(-c4cnccn4)cn3)c2C)cn1 [compound 64],5 to 100
3,Cc1nn(CC(=O)Nc2ccc(-c3ncccn3)cn2)c(C)c1C1=CC(C)OC(C)C1 (centres unmarked) [compound 85],5 to 100
4,Cc1nn(CC(=O)Nc2ccc(-c3ccccc3C#N)cn2)c(C)c1-c1ccnc(C(F)(F)F)c1 [compound 59],< 5
5,Cc1nn(CC(=O)Nc2ccc(-c3cnccn3)cn2)c(C)c1-c1ccnc(N)c1 [compound 79],5 to 100
6,Cc1nn(CC(=O)Nc2ccc(-c3ccc(C#N)nc3)cn2)c(C)c1-c1ccnc(C(F)(F)F)c1 [compound 66],< 5
7,Cc1nn(CC(=O)Nc2ccc(-c3ccnc(N(C)C)c3)cn2)cc1-c1ccnc(C(F)(F)F)c1 [compound 94],5 to 100
8,O=C(Cn1cnc(-c2ccnc(C(F)(F)F)c2)c1)Nc1ccc(-c2cncnc2)nc1 [compound 11],> 100
9,Cc1nn(CC(=O)Nc2ccc(-c3cnccn3)cn2)c(C)c1C1=CCOCC1 [compound 48],< 5
10,Cc1c(-c2ccnc(F)c2)ncn1CC(=O)Nc1ccc(-c2cnccn2)cn1 [compound 110],< 5
11,O=C(Cc1cc(-c2ccnc(C(F)(F)F)c2)cs1)Nc1ccc(-c2cnccn2)cn1 [compound 23],< 5
12,O=C(Cn1cc(-c2cnsc2)cn1)Nc1ccc(-c2cnccn2)cn1 [compound 27],5 to 100
13,Cc1nn(C(C)C(=O)Nc2ccc(-c3cnccn3)cn2)c(C)c1C1=CCOCC1 (centres unmarked) [compound 81],< 5
14,COc1cc(-c2cnccn2)cnc1NC(=O)Cn1nc(C)c(-c2ccnc(C(F)(F)F)c2)c1C [compound 77],5 to 100
15,O=C(Cc1cc(C2=CCOCC2)cs1)Nc1ccc(-c2cnccn2)cn1 [compound 28],5 to 100
16,Cc1nn(CC(=O)Nc2ccc(-c3cncnc3)cn2)c(C)c1C1=CC(C)OC(C)C1 (centres unmarked) [compound 84],< 5
17,Cc1cn(CC(=O)Nc2ccc(-c3cnccn3)cn2)nc1-c1ccnc(C(F)(F)F)c1 [compound 67],< 5
18,Cc1nn(CC(=O)Nc2ccc(-c3cnccn3)cn2)cc1-c1ccnc(C(F)(F)F)c1 [compound 56],< 5
19,O=C(Cn1cc(C2=CCOCC2)c(C(F)(F)F)n1)Nc1ccc(-c2cnccn2)cn1 [compound 88],< 5
20,Cc1nn(CC(=O)Nc2ccc(-c3cnccn3)cn2)c(C)c1C1=CC(C)OC(C)C1 (centres unmarked) [compound 82],< 5
21,Cc1nn(CC(=O)Nc2ccc(-c3cncnc3)cn2)c(C)c1-c1ccnc(C(F)(F)F)c1 [compound 35],< 5
22,O=C(Cn1cc(-c2ccnc(C(F)F)c2)cn1)Nc1ccc(-c2cnccn2)cn1 [compound 21],< 5
23,Cc1c(-c2ccnc(C(F)(F)F)c2)ncn1CC(=O)Nc1ccc(-c2ncccn2)cn1 [compound 105],< 5
24,O=C(Cn1cc(-c2ccnc(C(F)(F)F)c2)cn1)Nc1ccc(-c2cnccn2)cn1 [compound 17],< 5

# Same assay, conditions: luciferase signal reduced to 50% of DMSO control
row,Compound,IC50 [nM]
1,O=C(Cc1cc(-c2ccnc(C(F)(F)F)c2)cs1)Nc1ccc(-c2cnccn2)cn1 [compound 23],0.34
2,Cc1nn(CC(=O)Nc2ccc(-c3cncnc3)cn2)c(C)c1-c1ccnc(C(F)(F)F)c1 [compound 35],0.34
